Consider 1 compound from patent publication US7709526B2, “Use of cyclolignans and new cyclolignans” (Biovitrum AB, priority 2001, dated 2010).

Series [1] deals with receptor of fibroblast growth factor. Briefly: Tyrosine phosphorylation of fibroblast growth factor receptor. In kind it is cell-based.
Series [2] has as its system K562/Vcr30 chronic myeloid leukemia cells (cytostatic-resistant). Briefly: Viability of leukemia cells, K562/Vcr30. In kind it is cell-based, human. The settings on record: Homo sapiens; K562/Vcr30, 72 h; read-out: IC50 for viability of leukemia cell lines. As for the experimental part: (§1) The human chronic myeloid leukemia K562/S and K562/Vcr30 lines and the acute myeloid leukemia cell lines HL60/0 and HL60/Nov were obtained from ATCC. The K562/S and HL60/0 are wild type (non-resistant) cells, whereas K562/Vcr30 and HL60/Nov are cytostatic-resistant sublines. All leukemia cell lines were cultured in RPMI 1640 medium supplemented with 10% fetal bovine serum and with 2 mM glutamine, 1% benzyl-penicillin and streptomycin. The cells were grown in tissue culture flasks maintained at 95% air/5% CO2 atmosphere at 37° C. in a humidified incubator. For the experiments 25,000 cells were cultured in 60-mm plastic dishes or 96-well plastic plates. The experiments on leukemia cells were performed in collaboration with Associate professor Sigurd Vitols, Department of Pharmacology, Karolinska Hospital (Stockholm, Sweden).
(§2) Cell proliferation kit II (Roche Inc.) is based on calorimetric change of the yellow tetrazolium salt XTT in orange formazan dye by the respiratory chain of viable cells (Roehm, N W, et al., J Immunol Methods 142:257-265, 1991). Cells seeded at a concentration of 5000/well in 100 μl medium in a 96-well plate were treated with different drugs in the given concentration. After 24 or 48 h the cells were incubated, according to the manufacturer's protocol, with XTT labelling mixture. After 4 h the formazan dye is quantified using a scanning multiwell spectrophotometer with a 495-nm filter. The absorbance is directly correlated with number of viable cells. The standard absorbance curve was drawn by means of untreated cells seeded at a concentration of from 1000 to 10 000 cells/well with an increasing rate of 1000 cells/well. All standards and experiments were performed in triplicates.
(§3) The leukemia cell lines K562/S, K562/Vcr 30, HL60/0 and HL60/Nov were proven to express the IGF-1R. This was assayed by Western blotting analysis, as described in Methods and Experiment 1 and 2. The 4 leukemia cell lines were seeded in 96-well plates (medium volume in a well was 100 μl), in RPMI40 medium supplemented with fetal calf serum. After 24 h podophyllotoxin, deoxypodophyllotoxin and other derivatives were added at different concentrations for 72 h. Cell viability was then assayed (see above). IC50 values for each inhibitor and cell lines are shown below (Table 5). The results are based on 3 different experiments.

Series [3] in a line: Water solubility. In kind it is physicochemical.
Series [4] relates to BE melanoma cells. Briefly: Cell viability (XTT), BE. In kind it is cell-based. The settings on record: Homo sapiens, 48 h. As for the experimental part: as §2
(§4) 5 different types of cell lines were seeded in 96-well plates (medium volume in a well was 100 μl), at a concentration of 10,000 cells/cm^2 in Minimal Essential Medium supplemented with fetal calf serum. When the cells had reached a concentration of 65,000 cells/cm^2, they were treated with different doses of podophyllotoxin and deoxypodophyllotoxin for 48 h. Cell viability was then assayed (see above). […]

For series [5], the system named is HL60/Nov acute myeloid leukemia cells (cytostatic-resistant). Put plainly: Viability of leukemia cells, HL60/Nov. In kind it is cell-based, human. Conditions: Homo sapiens, HL-60, 72 h, read-out: IC50 for viability of leukemia cell lines. As for the experimental part: as §1, §2, §3
Series [6] relates to MCF-7 breast cancer cells. Put plainly: Cell viability (XTT), MCF-7. In kind it is cell-based, human. The settings on record: Homo sapiens, MCF7, 48 h. The protocol:
as §2, §4
Background: Tetrazolium assays rely on reduction of a dye to a coloured formazan, in cell work by metabolically active cells.

Series [7] deals with insulin receptor tyrosine kinase (Homo sapiens, UniProt P06213). Put plainly: Interference with insulin receptor tyrosine kinase. In kind it is cell-based.
Chain of insulin receptor tyrosine kinase (P06213 28-1382): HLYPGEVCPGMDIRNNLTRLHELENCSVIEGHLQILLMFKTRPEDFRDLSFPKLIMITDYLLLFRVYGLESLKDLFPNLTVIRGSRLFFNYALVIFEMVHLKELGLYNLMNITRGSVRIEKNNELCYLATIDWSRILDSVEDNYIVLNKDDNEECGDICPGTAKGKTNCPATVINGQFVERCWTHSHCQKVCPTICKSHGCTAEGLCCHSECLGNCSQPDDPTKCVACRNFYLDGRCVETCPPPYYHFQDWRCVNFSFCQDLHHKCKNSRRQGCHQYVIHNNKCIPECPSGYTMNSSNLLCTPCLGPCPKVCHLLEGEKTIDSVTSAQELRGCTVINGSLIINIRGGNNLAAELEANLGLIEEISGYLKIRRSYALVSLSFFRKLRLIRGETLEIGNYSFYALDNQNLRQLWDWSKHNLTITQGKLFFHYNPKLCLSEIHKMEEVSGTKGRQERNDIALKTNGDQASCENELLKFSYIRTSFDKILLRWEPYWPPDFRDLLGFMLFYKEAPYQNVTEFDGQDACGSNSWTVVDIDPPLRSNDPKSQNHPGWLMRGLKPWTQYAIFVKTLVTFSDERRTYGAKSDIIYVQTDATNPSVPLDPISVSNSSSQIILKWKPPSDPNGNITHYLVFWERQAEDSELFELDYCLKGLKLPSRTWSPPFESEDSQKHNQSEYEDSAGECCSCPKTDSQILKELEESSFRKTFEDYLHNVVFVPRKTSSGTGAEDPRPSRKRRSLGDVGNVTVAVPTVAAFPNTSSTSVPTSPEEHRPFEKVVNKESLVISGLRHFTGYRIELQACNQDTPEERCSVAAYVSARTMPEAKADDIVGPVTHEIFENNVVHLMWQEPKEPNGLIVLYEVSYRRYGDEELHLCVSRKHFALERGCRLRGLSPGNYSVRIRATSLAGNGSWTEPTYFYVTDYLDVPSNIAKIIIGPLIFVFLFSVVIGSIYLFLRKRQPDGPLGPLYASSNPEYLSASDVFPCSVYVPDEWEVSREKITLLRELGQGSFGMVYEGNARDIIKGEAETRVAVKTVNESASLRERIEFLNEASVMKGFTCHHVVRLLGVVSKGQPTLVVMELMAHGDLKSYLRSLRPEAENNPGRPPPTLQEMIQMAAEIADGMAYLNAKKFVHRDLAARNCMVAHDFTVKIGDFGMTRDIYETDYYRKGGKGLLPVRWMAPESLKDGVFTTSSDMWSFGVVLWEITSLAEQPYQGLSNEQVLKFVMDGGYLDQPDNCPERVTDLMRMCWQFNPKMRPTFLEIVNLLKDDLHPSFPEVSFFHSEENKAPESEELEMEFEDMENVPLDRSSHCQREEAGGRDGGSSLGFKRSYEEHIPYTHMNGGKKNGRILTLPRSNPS
Series [8] has as its system microtubules. Conditions: cell free systems; cited from earlier work.
The test system of series [9] is malignant cells. Briefly: Cell death in malignant cells. In kind it is cell-based.
In series [10] the target is receptor of epidermal growth factor (Homo sapiens, UniProt P00533). Put plainly: Tyrosine phosphorylation of epidermal growth factor receptor. In kind it is cell-based.
Chain of receptor of epidermal growth factor (P00533 25-1210): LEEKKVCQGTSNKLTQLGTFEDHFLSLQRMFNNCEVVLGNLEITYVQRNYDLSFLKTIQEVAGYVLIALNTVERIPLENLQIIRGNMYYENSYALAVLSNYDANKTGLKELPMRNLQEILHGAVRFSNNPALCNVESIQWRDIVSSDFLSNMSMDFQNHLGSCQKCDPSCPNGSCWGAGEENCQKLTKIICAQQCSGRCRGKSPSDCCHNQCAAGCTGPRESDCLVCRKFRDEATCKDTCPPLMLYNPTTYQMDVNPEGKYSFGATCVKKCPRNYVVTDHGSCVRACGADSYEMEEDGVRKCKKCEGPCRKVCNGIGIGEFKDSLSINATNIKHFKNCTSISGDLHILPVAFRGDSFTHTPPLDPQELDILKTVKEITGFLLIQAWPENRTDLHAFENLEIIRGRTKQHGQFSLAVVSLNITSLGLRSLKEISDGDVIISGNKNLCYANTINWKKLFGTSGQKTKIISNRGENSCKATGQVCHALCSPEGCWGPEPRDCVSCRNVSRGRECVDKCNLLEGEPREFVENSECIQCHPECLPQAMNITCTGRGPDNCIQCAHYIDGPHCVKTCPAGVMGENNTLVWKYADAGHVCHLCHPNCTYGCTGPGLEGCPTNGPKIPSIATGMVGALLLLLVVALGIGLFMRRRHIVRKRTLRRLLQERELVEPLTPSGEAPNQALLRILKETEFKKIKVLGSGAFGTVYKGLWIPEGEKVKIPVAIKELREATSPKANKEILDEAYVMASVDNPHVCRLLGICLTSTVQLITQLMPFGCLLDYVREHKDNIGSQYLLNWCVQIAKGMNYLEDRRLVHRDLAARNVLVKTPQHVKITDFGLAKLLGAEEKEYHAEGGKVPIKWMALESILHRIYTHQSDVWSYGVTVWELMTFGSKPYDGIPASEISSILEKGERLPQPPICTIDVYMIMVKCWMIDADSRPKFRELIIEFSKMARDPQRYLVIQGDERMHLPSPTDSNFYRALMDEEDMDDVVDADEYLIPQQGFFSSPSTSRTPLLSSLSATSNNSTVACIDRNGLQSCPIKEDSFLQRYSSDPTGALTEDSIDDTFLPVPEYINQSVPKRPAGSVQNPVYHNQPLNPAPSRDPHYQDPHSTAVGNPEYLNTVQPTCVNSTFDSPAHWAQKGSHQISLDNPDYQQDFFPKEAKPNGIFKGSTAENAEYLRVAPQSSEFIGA
For series [11], the system named is cells devoid of insulin-like growth factor-1 receptors. Put plainly: Cell death in cells devoid of IGF-1R. In kind it is cell-based.
The subject of series [12] is SK-MEL-28 melanoma cells. Put plainly: Cell viability (XTT), SK-MEL-28. In kind it is cell-based, human. Conditions: Homo sapiens, 48 h. As for the experimental part: as §2, §4
Series [13] deals with HL60 acute myeloid leukemia cells. Briefly: Viability of leukemia cells, HL60. In kind it is cell-based, human. Conditions: Homo sapiens, HL-60; HL60, 72 h; read-out: IC50 for viability of leukemia cell lines. The protocol:
as §1, §2, §3

Series [14] relates to rats. Conditions: cited from earlier work.

For `COc1cc([C@@H]2c3cc4c(cc3[C@H](O)[C@H]3COC(=O)[C@H]23)OCO4)cc(OC)c1OC` [Podophyllotoxin, podophyllotoxin], in series [1], the “interference with tyrosine phosphorylation of the receptor of fibroblast growth factor” value was “Neither do they interfere”. Also, the IC50 in [2] was 0.007 µM; in series [4], 0.05 µM; in series [5] it was 0.002 µM; in series [6] it was 0.07 µM; in series [12], 0.05 µM; in series [13] it was 0.003 µM. The same compound yielded a water solubility in [3] of 100 to 200 µM. Moreover, the “interference with the insulin receptor tyrosine kinase” value in [7] was “do not interfere”. For the same compound, the effect on microtubules entry in series [8] is listed as “required μM concentrations”. Besides, the “cell death in malignant cells (in words)” value in series [9] is “extensive cell death”. The “interference with tyrosine phosphorylation of the receptor of epidermal growth factor” value in series [10] is “Neither do they interfere”. For the same compound, the “response of cells devoid of IGF-1R (in words)” value in [11] is “resistant”. For the same compound, in series [14], the LD50 in rats is on record as 14 mg/kg.

One may read the IC50 as the midpoint of a concentration-inhibition curve.
